This is an account of results in ChEMBL document CHEMBL4321791, “TASK Channels Pharmacology: New Challenges in Drug Design” (J Med Chem, 2019).

Assay [1] concerns the target T1, Potassium channel subfamily K member 3 (Homo sapiens, UniProt O14649). Kind of assay: Inhibition of human TASK1 expressed in Xenopus oocytes by whole cell voltage clamp assay. Type of assay: cell-based.
Target sequence in this assay (O14649 whole entry): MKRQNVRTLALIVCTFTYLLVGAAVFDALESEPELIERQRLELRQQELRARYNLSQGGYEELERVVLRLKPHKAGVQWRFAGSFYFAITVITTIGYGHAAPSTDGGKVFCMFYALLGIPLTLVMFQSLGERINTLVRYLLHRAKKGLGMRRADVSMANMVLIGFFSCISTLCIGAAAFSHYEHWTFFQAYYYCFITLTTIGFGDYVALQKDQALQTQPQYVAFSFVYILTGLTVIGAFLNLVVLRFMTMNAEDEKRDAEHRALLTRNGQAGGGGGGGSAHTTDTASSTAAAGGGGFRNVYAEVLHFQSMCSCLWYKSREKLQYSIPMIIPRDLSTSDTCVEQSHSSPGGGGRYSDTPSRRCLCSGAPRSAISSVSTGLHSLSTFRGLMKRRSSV
Assay [2] has as its target T2, Potassium channel subfamily K member 9 (Homo sapiens, UniProt Q9NPC2). As to the kind of experiment: Inhibition of human TASK3 expressed in HEK293 cells by Ti+ flux assay. The assay is classed as cell-based.
In assay [3] the target is T2, Potassium channel subfamily K member 9. Kind of assay: Inhibition of human TASK3 expressed in Xenopus oocytes by whole cell voltage clamp assay. The assay is classed as cell-based.
For assay [4] the target is unchanged. As to the kind of experiment: Inhibition of human TASK3 expressed in CHO cells by Inside-out macro-patches based electrophysiology assay. Type of assay: cell-based.
Assay [5] addresses T3, Potassium channel subfamily K member 9 (Rattus norvegicus, UniProt Q9ES08). Kind of assay: Inhibition of rat TASK3 expressed in (FRT) epithelial cells by chamber based electrophysiology assay. Type of assay: cell-based.
Another assay is filed under the species Homo sapiens. Kind of assay: Selectivity index, ratio of IC50 for Kv1.5 channel (unknown origin) to IC50 for inhibition of human TASK1 expressed in Xenopus oocytes by whole cell voltage clamp assay. The assay is classed as cell-based.
Assay [6] concerns the target T4, Potassium channel subfamily K member 17 (Homo sapiens, UniProt Q96T54).
T4 sequence (Q96T54 whole entry): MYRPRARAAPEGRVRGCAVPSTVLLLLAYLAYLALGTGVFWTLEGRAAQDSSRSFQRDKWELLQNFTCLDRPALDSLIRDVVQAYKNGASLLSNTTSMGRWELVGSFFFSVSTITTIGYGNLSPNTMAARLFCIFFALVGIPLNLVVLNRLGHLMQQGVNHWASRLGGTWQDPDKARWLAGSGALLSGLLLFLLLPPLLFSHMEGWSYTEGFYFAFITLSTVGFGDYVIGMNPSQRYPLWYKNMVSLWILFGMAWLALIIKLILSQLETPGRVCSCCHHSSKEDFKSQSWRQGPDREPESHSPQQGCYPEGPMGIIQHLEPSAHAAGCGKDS
As to the kind of experiment: Inhibition of human TASK4 expressed in CHO cells by Inside-out macro-patches based electrophysiology assay. Type of assay: cell-based.

The target of assay [7] is T5, Potassium channel subfamily K member 5 (Homo sapiens, UniProt O95279).
T5 sequence (O95279 whole entry): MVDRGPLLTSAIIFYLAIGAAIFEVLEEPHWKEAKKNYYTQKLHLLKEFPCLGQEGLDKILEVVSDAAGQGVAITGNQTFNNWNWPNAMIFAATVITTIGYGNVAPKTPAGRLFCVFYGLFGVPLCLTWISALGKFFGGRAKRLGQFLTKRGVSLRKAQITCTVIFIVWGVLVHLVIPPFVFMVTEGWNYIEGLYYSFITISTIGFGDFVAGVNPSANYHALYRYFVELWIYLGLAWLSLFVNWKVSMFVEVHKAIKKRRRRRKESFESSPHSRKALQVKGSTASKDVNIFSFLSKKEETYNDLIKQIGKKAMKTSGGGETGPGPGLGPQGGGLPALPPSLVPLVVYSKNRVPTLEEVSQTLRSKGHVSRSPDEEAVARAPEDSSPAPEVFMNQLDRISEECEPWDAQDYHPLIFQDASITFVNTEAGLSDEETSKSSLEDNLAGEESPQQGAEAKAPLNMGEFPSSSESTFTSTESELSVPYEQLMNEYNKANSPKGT
Kind of assay: Inhibition of human TASK2 expressed in CHO cells by Inside-out macro-patches based electrophysiology assay. Type of assay: cell-based.

Assay [8] deals with T3, Potassium channel subfamily K member 9. As to the kind of experiment: Inhibition of rat TASK3 expressed in African green monkey COS7 cells by outside-out patches based electrophysiology assay. The assay is classed as cell-based.
Assay [9] addresses T6, Potassium channel subfamily K member 3 (Rattus norvegicus, UniProt O54912). As to the kind of experiment: Inhibition of rat TASK1 expressed in African green monkey COS7 cells by outside-out patches based electrophysiology assay. Type of assay: cell-based.
In assay [10] the target is Potassium channel subfamily K member 9 (Rattus norvegicus) (UniProt Q9ES08). Kind of assay: Inhibition of rat TASK3 expressed in African green monkey COS7 cells at 100 uM by outside-out patches based electrophysiology assay relative to control. Type of assay: cell-based.
Sequence of Potassium channel subfamily K member 9 (Rattus norvegicus) (Q9ES08 whole entry): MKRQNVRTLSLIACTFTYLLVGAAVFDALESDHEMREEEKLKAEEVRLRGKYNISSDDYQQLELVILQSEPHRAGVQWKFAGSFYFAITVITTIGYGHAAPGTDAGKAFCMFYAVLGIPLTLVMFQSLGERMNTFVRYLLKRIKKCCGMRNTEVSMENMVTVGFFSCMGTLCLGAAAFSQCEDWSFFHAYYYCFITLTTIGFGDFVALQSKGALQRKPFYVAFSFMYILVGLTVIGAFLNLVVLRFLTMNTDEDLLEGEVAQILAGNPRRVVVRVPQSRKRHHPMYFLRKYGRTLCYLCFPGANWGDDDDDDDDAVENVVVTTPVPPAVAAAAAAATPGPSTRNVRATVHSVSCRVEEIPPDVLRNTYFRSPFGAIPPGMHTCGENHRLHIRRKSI
The target of assay [11] is T1, Potassium channel subfamily K member 3. As to the kind of experiment: Activation of human TASK1 expressed in African green monkey COS cells at 2 mM by whole cell patch clamp assay relative to control. Type of assay: cell-based.
Target sequence in this assay (O14649 whole entry, looked up): as the sequence (O14649 whole entry) above
The target is the same in assay [12]. As to the kind of experiment: Inhibition of human TASK1 expressed in African green monkey COS cells at 0.6 mM by whole cell patch clamp assay relative to control. Type of assay: cell-based.
Target sequence in this assay (O14649 whole entry, looked up): as the sequence (O14649 whole entry) above
For assay [13] the target is unchanged. Kind of assay: Inhibition of human TASK1 expressed in African green monkey COS7 cells by whole cell patch clamp assay. Type of assay: cell-based. On the technique in general: The patch-clamp technique gives a direct electrical read-out from membranes.
Target sequence in this assay (O14649 whole entry): as above
Assay [14] deals with Potassium channel subfamily K member 9 (Rattus norvegicus) (UniProt Q9ES08). As to the kind of experiment: Inhibition of rat TASK3 expressed in African green monkey COS7 cells at 1 mM by outside-out patches based electrophysiology assay relative to control. Type of assay: cell-based.
Assay [15] concerns the target T2, Potassium channel subfamily K member 9. The settings on record: 1 uM.
Description: Inhibition of human TASK3 expressed in Xenopus oocytes at 1 uM by whole cell patch clamp assay relative to control
For assay [16], the target named is T1, Potassium channel subfamily K member 3. Kind of assay: Inhibition of human TASK1 expressed in African green monkey COS cells by whole cell patch clamp assay. Type of assay: cell-based.
Target sequence in this assay (O14649 whole entry): as above
For assay [17], the target named is T2, Potassium channel subfamily K member 9. Kind of assay: Activation of human TASK3 expressed in human tsA201 cells at 1 uM by whole cell patch clamp assay relative to control. Type of assay: cell-based.
Assay [18] has the same target. Kind of assay: Inhibition of human TASK3 expressed in CHOK1 cells by Ti+ flux assay. The assay is classed as cell-based.
The target of assay [19] is T6, Potassium channel subfamily K member 3. As to the kind of experiment: Inhibition of rat TASK1 expressed in Xenopus oocytes by whole cell voltage clamp assay. Type of assay: cell-based.
Assay [20] has as its target T3, Potassium channel subfamily K member 9. Kind of assay: Inhibition of rat TASK3 expressed in Xenopus oocytes by whole cell voltage clamp assay. The assay is classed as cell-based.
The target in assay [21] is T2, Potassium channel subfamily K member 9. Kind of assay: Activation of human TASK3 expressed in Xenopus oocytes at 1 mM by whole cell patch clamp assay relative to control. Type of assay: cell-based.
The target in assay [22] is T1, Potassium channel subfamily K member 3. As to the kind of experiment: Inhibition of human TASK1 by whole cell voltage clamp assay.
Target sequence in this assay (O14649 whole entry): as above
Assay [23] shares this target. As to the kind of experiment: Activation of human TASK1 expressed in African green monkey COS cells at 1 mM by whole cell patch clamp assay relative to control. The assay is classed as cell-based.
Target sequence in this assay (O14649 whole entry, looked up): as the sequence (O14649 whole entry) above
Assay [24] shares this target. Kind of assay: Activation of human TASK1 expressed in African green monkey COS cells at 0.1 to 1 mM by whole cell patch clamp assay relative to control. The assay is classed as cell-based.
Target sequence in this assay (O14649 whole entry, looked up): as the sequence (O14649 whole entry) above
The target of assay [25] is T2, Potassium channel subfamily K member 9. As to the kind of experiment: Inhibition of human TASK3 expressed in HEK293 by whole cell voltage clamp assay. The assay is classed as cell-based.

Structures can show the parent of a compound that is named as a salt.

By IC50 is commonly meant the concentration that inhibits the measured activity by half. For orientation: inhibition means the relative decrease from the control value, in per cent.

T3 sequence (Q9ES08 whole entry): as the sequence (Q9ES08 whole entry) above
T2 sequence (Q9NPC2 whole entry): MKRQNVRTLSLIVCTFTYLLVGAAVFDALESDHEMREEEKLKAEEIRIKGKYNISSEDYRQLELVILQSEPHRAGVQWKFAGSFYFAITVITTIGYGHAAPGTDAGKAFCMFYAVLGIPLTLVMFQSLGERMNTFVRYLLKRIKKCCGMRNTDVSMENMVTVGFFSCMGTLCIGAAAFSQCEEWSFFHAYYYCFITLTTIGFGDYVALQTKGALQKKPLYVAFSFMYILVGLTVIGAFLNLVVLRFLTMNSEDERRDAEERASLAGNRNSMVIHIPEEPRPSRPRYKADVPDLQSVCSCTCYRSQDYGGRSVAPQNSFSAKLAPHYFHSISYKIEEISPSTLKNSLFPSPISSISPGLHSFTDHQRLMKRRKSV
T6 sequence (O54912 whole entry): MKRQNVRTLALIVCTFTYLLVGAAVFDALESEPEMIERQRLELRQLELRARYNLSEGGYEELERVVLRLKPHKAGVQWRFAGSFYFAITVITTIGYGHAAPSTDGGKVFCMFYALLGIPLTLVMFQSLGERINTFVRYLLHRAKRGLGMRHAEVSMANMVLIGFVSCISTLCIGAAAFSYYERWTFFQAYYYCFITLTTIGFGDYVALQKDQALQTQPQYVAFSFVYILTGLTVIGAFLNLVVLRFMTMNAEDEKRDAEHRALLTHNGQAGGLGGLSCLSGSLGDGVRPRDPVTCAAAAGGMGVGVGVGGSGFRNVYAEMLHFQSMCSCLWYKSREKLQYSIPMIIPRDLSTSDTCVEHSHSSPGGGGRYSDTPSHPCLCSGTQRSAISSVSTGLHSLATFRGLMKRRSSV

The compound `CCc1ccc(S(=O)(=O)NC2c3cc(NC(=O)c4cccc(OC)c4)ccc3CC2O)cc1` (stereo not given) yielded an IC50 in [1] of 1.05 µM.
Turning to `CCOC(=O)c1cc(C)n2c1-c1cc(OC)c(OC)cc1CC2`, the IC50 in [1] was 83.5 µM.
For the compound `COCC(=O)O[C@]1(CCN(C)CCCc2nc3ccccc3[nH]2)CCc2cc(F)ccc2[C@@H]1C(C)C` [MIBEFRADIL DIHYDROCHLORIDE], in assay [2] (hek293), the IC50 is 24.6 µM.
`CCOC(=O)c1c(-c2cccc(N)c2)c(C)n2c1-c1cc(OC)c(OC)cc1CC2` yielded an IC50 in assay [3] of 268 µM.
Take `CCOC(=O)N1CCC(=C2c3ccc(Cl)cc3CCc3cccnc32)CC1` [LORATADINE]: 63.4 µM corresponded to half-maximal inhibition in assay [2] (hek293) (IC50).
For `COc1ccc(CC(=O)NCc2ccccc2-c2ccccc2C(=O)NCc2ccc(F)cc2F)cc1`, the IC50 in assay [1] was determined as 0.035 µM; in [4] it was 0.07 µM; in assay [3], 0.318 µM; in [5], 0.036 µM; in [6] it was 8.1 µM; in assay [7] it was 12 µM. In addition, in the assay listed under Homo sapiens, the Ratio IC50 is 68.
With `CCCCN1CCCCC1C(=O)Nc1c(C)cccc1C` (stereo not given) [BUPIVACAINE], the half-inhibitory concentration (IC50) in assay [1] was 41 µM; in assay [8], 100 µM; in [9], 41 to 68 µM. In assay [10], the inhibition came out at 56%.
For the compound `FC(F)OC(Cl)C(F)(F)F` (stereo not given), the Activity in assay [11] was determined as 25%.
In assay [12], `CCOCC` returned an inhibition of 40%.
Consider `CCCCC/C=C\C/C=C\C/C=C\C/C=C\CCCC(=O)NCCO` [ANANDAMIDE], for which the half-maximal inhibitory concentration (IC50) in assay [13] was found to be 3 µM.
Regarding `CCN(CC)CC(=O)Nc1c(C)cccc1C` [LIDOCAINE], it took 222 µM to reach half-maximal inhibition in assay [1] (IC50). In assay [14], the inhibition stood at 62%.
In turn, `CC[N+](CC)(CC)CC` displayed an inhibition in assay [15] of 6.1%.
Turning to `CC[C@H](C)C(=O)O[C@H]1CCC=C2C=C[C@H](C)[C@H](CC[C@@H]3C[C@@H](O)CC(=O)O3)[C@H]21` [MEVASTATIN], half-maximal inhibition in assay [2] (IC50) was put at 159 µM.
Take `CC[C@@H]1/C=C/C=C/C[C@H](C)[C@@H](O)[C@](C)(O)C(=O)[C@H](C)[C@@H](O)[C@H](C)C(=O)[C@H](C)[C@@H](O)[C@H](C)/C=C/C(=O)O[C@H]2[C@@H](C)[C@@H](CC1)O[C@@]1(CC[C@@H](C)[C@@H](C[C@H](C)O)O1)[C@@H]2C`: in assay [2], the IC50 turned out to be 47.7 µM.
In the case of `CCOC(=O)c1c(-c2cccs2)c(C)n2c1-c1cc(OC)c(OC)cc1CC2`, the IC50 in assay [1] came out at 96.7 µM.
In assay [1], `O=C(NCc1ccccc1-c1ccccc1C(=O)NCCc1ccccn1)OCc1ccccc1` returned an IC50 of 0.2 µM.
Compound `CN(C)c1cc2c(Nc3ccc4c(cnn4Cc4ccccc4)c3)ncnc2cn1` [GW282974X] registered an IC50 in assay [2] of 50.1 µM.
Take `CCCCC/C=C\C/C=C\C/C=C\C/C=C\CCCC(=O)N[C@H](C)CO` [METHANANDAMIDE]: the midpoint of inhibition in assay [16], the IC50, lay at 0.1 µM.
`CCCN1CCCC[C@@H]1C(=O)Nc1c(C)cccc1C`: the IC50 in assay [1] was 51 µM.
Still for that read-out and setting: to `COc1ccc(CC(=O)NCc2ccccc2-c2ccccc2C(=O)NCCc2cccnc2)cc1` belongs 0.6 µM.
The same measure, in the same setting: then `Cc1cccc(C)c1NC(=O)C1CCCCN1C` (stereo not given) [MEPIVACAINE], with 709 µM.
As to `CN(C/C=C/C#CC(C)(C)C)Cc1cccc2ccccc12`, the Activity in [17] was 30%.
`O=C(NCCNc1ccc([N+](=O)[O-])cc1C(F)(F)F)c1ccccc1` displayed a fold change (FC) in assay [18] of 6.
Regarding `COc1cc2c(cc1OC)-c1c(C#N)c(-c3ccccc3)c(C)n1CC2`, in assay [3], the IC50 is 189 µM.
In the case of `CCN1CC(CCN2CCOCC2)C(c2ccccc2)(c2ccccc2)C1=O` (stereo not given) [DOXAPRAM], the IC50 is 0.41 µM in [19], 16 µM in assay [5] and 37 µM in [20].
On to `CCCC(=O)C1CCN(c2ncnc3c2CN(C(=O)c2ccc(-c4ccccc4)cc2)CC3)CC1`, for which, in [5], 0.01 µM corresponded to half-maximal inhibition (IC50).
In turn, `CCCN1CCCC[C@H]1C(=O)Nc1c(C)cccc1C` [ROPIVACAINE] gave an IC50 in [1] of 53 µM.
The compound `Ic1ccccc1CN[C@@H]1C2CCN(CC2)[C@@H]1C(c1ccccc1)c1ccccc1` had an IC50 in assay [2] of 45.5 µM.
`C=C[C@H]1CN2CC[C@H]1C[C@@H]2[C@@H](O)c1ccnc2ccc(OC)cc12` registered an inhibition in assay [10] of 37%.
With `CCCN(CC)C(CC)C(=O)Nc1c(C)cccc1C` (stereo not given) [ETIDOCAINE], in [1], the IC50 worked out at 39 µM.
On the same count and under the same terms, to `CCCCNc1ccc(C(=O)OCCN(C)C)cc1` [TETRACAINE] belongs 668 µM.
Turning to `CN1CCN(C2Cc3ccccc3Sc3ccc(Cl)cc32)CC1` (racemic), inhibition in [2] was half-maximal at 73.8 µM (IC50).
The compound `[Cl-].[Cs+]` registered an Activity in assay [21] of 7.7%.
On to `COc1ccc(-n2nc(Sc3ccc(C)cc3)c(C)c(C#N)c2=O)cc1`, for which the midpoint of inhibition in assay [1], the IC50, lay at 0.35 µM.
`CCCCS(=O)(=O)Nc1ccccc1C(=O)NC(CC)c1ccc(OC)nc1` (stereo not given): the IC50 in assay [1] stood at 0.222 µM; in [22] it was 0.22 µM; in assay [3] it was 0.95 µM.
The compound `CN1CCN(C2Cc3ccccc3Sc3ccc(Cl)cc32)CC1` (stereo not given) [CLOROTEPINE] returned an IC50 in [2] (hek293) of 73.8 µM.
`FC(F)(F)C(Cl)Br` (stereo not given): the Activity in assay [21] was 65.6%; in [23] it was 60%; in [24], more than 60%.
As for `CC(C1CC2CCC1C2)n1c(S)nnc1-c1ccco1` (stereo not given), the figures for the IC50 in [22] and in assay [25] were 3.2 µM and 0.413 µM, respectively.
